# Laboratory results from patent US20060134126A1, “Peptide constructs for treating disease” (priority 2002, published 2006).
# Ends that are not written are not given here.
# Assays:
# [1] = system: P. yoelii (non lethal strain 17XNL) sporozoites; test: Comparison of lots and forms of derG in malaria system (Table 9); format: in vivo; details: A/J mice, 5 μg two times, TiterMax
# Procedure: Four (4) groups of 10 mice (4-to 6-wk-old female A/J) were subcutaneously two times at 3-week intervals with 5 μg of the derG peptide, emulsified in TiterMax™ at 1:1 ratio as previously described. Two other groups of mice treated with TiterMax™ alone and untreated mice served as controls. Fourteen days after the second treatment mice were intravenously challenged with 100 P. yoelii (non lethal strain 17XNL ) sporozoites. Parasitemia was determined by microscopic examination of 200 oil-immersion fields of Geimsa stained-thin blood smears obtained from the mice at 5, 7, and 14 days post challenge.
# In particular, the derG(19) peptide contains an additional glycine amino acid inserted between the A 140 and V 142 residues. The rationale for the insertion was that these two residues are involved in the CD4 interaction as disclosed in Konig et al. “MHC class II interaction with CD4 medicated by a region analogous to the MHC class I binding site for CD8”, Nature 1992; 356:796-798.
# [2] = system: plasmodium yoelii sporozoites; test: Protection from sporozoite challenge, TCBL derG in inbred mice (Tables 5, 6); format: in vivo
# Excerpt: (§1) Next using another antigen with B and T cell activity two inbred strains of mice, (A/J and Balb/c) were immunized twice at three week intervals with the L.E.A.P.S.™ constructs (J-GF/SF or der-SF/GF) or with the subunits (SF/GF, J and derG) used to make heteroconjugated peptides, and were challenged with 100 Plasmodium yoelii sporozoites 2 weeks after the second immunization and protection efficacy evaluated as before. Four days before challenge, serum was collected from individual animals, pooled and analyzed immediately for antibody to SF/GF peptide sera collected from immunized and protected mice 15 days post challenge were pooled and used for IFN-γ determination by ELISA procedures.
# Another experiment similar to the first except only a single strain of mice (A/J) was used with decreasing doses of the derG in order to evaluate potency as shown in Table 6.
# SF/GF peptide = test: Serum antibody ELISA to SF/GF peptide; format: in vivo, mouse
# Excerpt: as §1
# IFN-γ = test: Serum IFN-γ by ELISA; format: in vivo, mouse; details: A/J mice, sera pooled 15 days post challenge
# Excerpt: as §1
# B16 melanoma = test: Allogeneic murine B16 melanoma protection model; format: in vivo, mouse; details: for Protection: in combination with allogeneic cells
# Procedure: In particular, C57/b16 (H2^b) mice are vaccinated with the allogeneic melanoma K1735 (H2^k) at least twice on weekly intervals and then challenged with syngeneic B16 (H2^b) tumors. […] This is clear evidence of cross-priming and the existence of shared antigens.
# Peptide constructs were prepared using as T cell binding ligand, either derG (SEQ ID NO. 7), Peptide G (SEQ ID NO. 5). The peptides are synthesized using the FMOC procedure and a double coupling protocol for the first 8 residues. Usually the peptide is prepared with the carboxyl terminus as an amide form. All of the peptides are purified using prepatative HPLC, and analyzed by an analytical HPLC, amino acid analysis and mass spectrophotometer. The peptides are greater than 95%, usually greater than 98%, pure by HPLC criteria. The dry peptides are stored in vials with desiccant at −8° C. • 1) Eight groups of seven mice were injected with 200 μl of the vaccine as shown in FIG. 1. • 2) This was repeated after 7 days. • 3) A further 7 days later, mice were challenged with 200 μl saline containing 5×10^4 live B16 on the contralateral side to vaccination. • 4) Mice were sacrificed when tumor size exceeded 15 mm in either axis.
# In order more precisely model the use of clinical allogeneic vaccines, a frozen vaccine was used in the mouse model wherein K-1735 cells were thawed just prior to use. Efficacy in the protection model ranged from 40-10%. Additionally, the antigen TRP2 (a.a. 180-188), found in B16 melanoma, was engineered into L.E.A.P.S.™ constructs and was tested in various permutations in the allogeneic murine melanoma model. Optimization may be necessary.
# [3] = system: plasmodium yoelii sporozoites; test: Protection from sporozoite challenge in different mouse strains (Table 7); format: in vivo; details: 25 μg, 2 times at 3 week intervals, TiterMax
# Procedure: Since derG alone was able to protect A/J mice against Plasmodium yoelii sporozoites challenge, in the absence of malaria antigen, a similar experiment was conducted to evaluate the protective efficacy of derG in three other mouse strains: BALB/c (H2d), C3H/HeJ (H2K) and hybrid CAF1 (A/J×BALB/c).
# Groups of 10 mice were pre-treated 2 times at 3 week intervals with 25 μg of derG in TiterMax™ adjuvant and challenged with 100 Plasmodium yoelii sporozoites. Protective efficacy was evaluated as described above.
# HSV-1 = test: Scarification-zosteriform spread model of HSV infection; format: in vivo; details: A/J mice
# Procedure: Groups of 4-to 6-wk old female A/J mice were subcutaneously inoculated once with 25 μg of the derG peptide emulsified in ISA51 adjuvant at a 1:1 ratio before challenge unless otherwise specified. Untreated mice and mice treated with adjuvant served as additional controls. The mice were challenged as specified in methods well known to those of ordinary skill in the art and as exemplified by Goel et al. (“The Ability of an HSV Strain to Initiate Zosteriform Spread Correlates with its Neuroinvasive Disease Potential”, Arch Virol 147:763-773 (2002)) and Goel et al., (“A Modification Of The Epidermal Scarification Model Of Herpes Simplex Virus Infection To Achieve A Reproducible And Uniform Progression Of Disease”, J Virol Meth 106;153-8 (2002)).
# In particular, hair is removed by shaving and then Nair® is applied. Twenty-fours later the depilated back of a mouse is scratched or abraded to expose the susceptible epidermal layer and virus rubbed in. To provide more detail, 10 μl of a virus suspension containing 6×10^4 plaque forming-units was pipetted onto a 0.5 cm square of skin on mouse dorsal surface, which was previously abraded using sand paper glued on a pencil eraser. In untreated animals, the primary lesion developed at the inoculation site within 3 days and spread to the associated root, followed by anterograde transport and formation of secondary lesions at sites along the dermatome of the nerves within 5 days. In severe cases, animals died within 8 days post viral challenge. Disease progression and survival were monitored for at least 10 days. […] The progression and the severity of the lesions was scored from 0 to 7 (death). This model allows for discrimination of the disease progression (local site, neuronal spread, extent of lesion at the dermatome, death) at which the immune system blocks viral progression. In some experiments modifications in the timing, route of administration and mouse strain were evaluated for efficacy of CEL-1000.
# [4] = system: plasmodium yoelii sporozoites; test: Malaria protection assay, G/W peptides (Table 4); format: in vivo; details: Experiment 2, outbred CD-1 mice; 25 μg twice; 200 sporozoites
# Procedure: In particular, mice were immunized twice at three week intervals with 25 μg of the subunits (W or G) used to make the L.E.A.P.S.™ construct (GW), and were challenged with 200 plasmodium yoelii sporozoites 2 weeks after the second immunization. Protective efficacy was evaluated by thin blood smears every other day starting 4 days after the challenge. Mice were considered protected if no blood stage parasites were detectable by 14 days after challenge.
# [5] = Balb/c mice, dose 25 μg, Table 5
# [6] = A/J mice, dose 5 μg, serum pool 4 days before challenge
# [7] = A/J mice, dose 25 μg, serum pool 4 days before challenge
# [8] = A/J mice, dose 1.25 μg, Table 6
substance,measurement,setting,value
"DGQEEKAGGVVSTGLIGGGamide (DGQEEKAGGVVSTGLIGGG-NH2) [derG(19), derG with an additional glycine inserted between the A 140 and V 142 residues]",% Protected,[1]; Lot 1,40%
same,Protected/Total,[1]; Lot 1,4/10
same,% Protected,[1]; Lot 2,30%
same,Protected/Total,[1]; Lot 2,3/10
same,% Protected,[1]; Lot 3,50%
same,Protected/Total,[1]; Lot 3,5/10
DGQEEKAGVVSTGLIGGGSFPMNEESPLGFSPEEMEAVASKFR [derG-GF/SF],Protection (%),"[2]; A/J mice, dose 5 μg, Table 5",(80%)
same,Protection Protected/Tested,"[2]; A/J mice, dose 5 μg, Table 5",8/10
same,Protection (%),"[2]; A/J mice, dose 5 μg, Table 6",(10%)
same,Protection Protected/Tested,"[2]; A/J mice, dose 5 μg, Table 6",1/10
same,Protection (%),"[2]; A/J mice, dose 25 μg, Table 5",(100%)
same,Protection Protected/Tested,"[2]; A/J mice, dose 25 μg, Table 5",10/10
same,Protection (%),[2]; [5],(0%)
same,Protection Protected/Tested,[2]; [5],0/10
same,Antibody ELISA A490*,SF/GF peptide; [6],"1,933"
same,Antibody ELISA A490*,SF/GF peptide; [7],"10,694"
same,Antibody ELISA A490*,"SF/GF peptide; Balb/c mice, dose 25 μg","17,019"
same,IFN-γ serum,IFN-γ; dose 5 μg,"7,000 pg/mL"
same,IFN-γ serum,IFN-γ; dose 25 μg,"6,000 pg/mL"
"DGQEEKAGVVSTGLIGGGamide (DGQEEKAGVVSTGLIGGG-NH2) [derG, modified fragment from MHC II β-chain (a.a.135-149)]",Protection,B16 melanoma; first value named of two experiments,30%
same,Protection,B16 melanoma; second value named of two experiments,40%
same,Protection (%),[2]; [8],(60%)
same,Protection Protected/Tested,[2]; [8],6/10
same,Protection (%),"[2]; A/J mice, dose 2.5 μg, Table 6",(80%)
same,Protection Protected/Tested,"[2]; A/J mice, dose 2.5 μg, Table 6",9/10
same,Protection (%),"[2]; A/J mice, dose 5 μg, Table 5",(100%)
same,Protection Protected/Tested,"[2]; A/J mice, dose 5 μg, Table 5",10/10
same,Protection (%),"[2]; A/J mice, dose 5 μg, Table 6",(100%)
same,Protection Protected/Tested,"[2]; A/J mice, dose 5 μg, Table 6",10/10
same,Protection (%),"[2]; A/J mice, dose 25 μg, Table 5",(100%)
same,Protection Protected/Tested,"[2]; A/J mice, dose 25 μg, Table 5",10/10
same,Protection (%),[2]; [5],(0%)
same,Protection Protected/Tested,[2]; [5],0/10
same,Antibody ELISA A490*,SF/GF peptide; [6],2
same,Antibody ELISA A490*,SF/GF peptide; [7],2
same,Antibody ELISA A490*,"SF/GF peptide; Balb/c mice, dose 25 μg",4
same,IFN-γ serum,IFN-γ; dose 5 μg,"40,000 pg/mL"
same,IFN-γ serum,IFN-γ; dose 25 μg,"18,000 pg/mL"
same,Protection,[3]; A/J mice,80
same,Protection,[3]; BALB/c mice,0
same,Protection,[3]; C3H mice,40
same,Protection,[3]; CAF1 hybrid mice,40
same,protection from lethal HSV-1 challenge,HSV-1,protects
same,Protection,"HSV-1; intramuscularly 2 weeks prior to challenge, without adjuvant, in aqueous solution",100%
same,"onset of symptoms, morbidity and mortality","HSV-1; single dose of 25 μg, timing of administration",delay in onset of symptoms
same,% Protected,[1]; form 18,90%
same,Protected/Total,[1]; form 18,9/10
DLLKNGERIEKVEGGG SFPMNEESPLGFSPEEMEAVASKFR [J-GF/SF],Protection (%),"[2]; A/J mice, dose 5 μg, Table 5",(10%)
same,Protection Protected/Tested,"[2]; A/J mice, dose 5 μg, Table 5",1/10
same,Protection (%),"[2]; A/J mice, dose 10 μg, Table 6",(56%)
same,Protection Protected/Tested,"[2]; A/J mice, dose 10 μg, Table 6",5/9
same,Protection (%),"[2]; A/J mice, dose 25 μg, Table 5",(100%)
same,Protection Protected/Tested,"[2]; A/J mice, dose 25 μg, Table 5",10/10
same,Protection (%),[2]; [5],(0%)
same,Protection Protected/Tested,[2]; [5],0/10
same,Antibody ELISA A490*,SF/GF peptide; [6],"1,103"
same,Antibody ELISA A490*,SF/GF peptide; [7],"6,121"
same,Antibody ELISA A490*,"SF/GF peptide; Balb/c mice, dose 25 μg","11,454"
same,IFN-γ serum,IFN-γ; dose 5 μg,0 pg/mL
same,IFN-γ serum,IFN-γ; dose 25 μg,"4,000 pg/mL"
"DLLKNGERIEKVEGGG [J, short fragment from β2-microglobulin (a.a. 38-50)]",Protection (%),"[2]; A/J mice, dose 5 μg, Table 5",(10%)
same,Protection Protected/Tested,"[2]; A/J mice, dose 5 μg, Table 5",1/10
same,Protection (%),"[2]; A/J mice, dose 10 μg, Table 6",(10%)
same,Protection Protected/Tested,"[2]; A/J mice, dose 10 μg, Table 6",1/10
same,Protection (%),"[2]; A/J mice, dose 25 μg, Table 5",(10%)
same,Protection Protected/Tested,"[2]; A/J mice, dose 25 μg, Table 5",1/10
same,Protection (%),[2]; [5],(0%)
same,Protection Protected/Tested,[2]; [5],0/10
same,Antibody ELISA A490*,SF/GF peptide; [6],1
same,Antibody ELISA A490*,SF/GF peptide; [7],2
same,Antibody ELISA A490*,"SF/GF peptide; Balb/c mice, dose 25 μg",2
NGQEEKAGVVSTGLIGGGamide (NGQEEKAGVVSTGLIGGG-NH2) [G + TM],activity compared with derG,B16 melanoma; differences from derG,much less active
same,# Protected/# tested,[4],6/16
same,% protection,[4],38%
SFPMNEESPLGFSPEEMEAVASKFR [GF/SF],Protection (%),"[2]; A/J mice, dose 5 μg, Table 5",(30%)
same,Protection Protected/Tested,"[2]; A/J mice, dose 5 μg, Table 5",3/10
same,Protection (%),"[2]; A/J mice, dose 5 μg, Table 6",(10%)
same,Protection Protected/Tested,"[2]; A/J mice, dose 5 μg, Table 6",1/10
same,Protection (%),"[2]; A/J mice, dose 10 μg, Table 6",(50%)
same,Protection Protected/Tested,"[2]; A/J mice, dose 10 μg, Table 6",5/10
same,Protection (%),"[2]; A/J mice, dose 25 μg, Table 5",(100%)
same,Protection Protected/Tested,"[2]; A/J mice, dose 25 μg, Table 5",10/10
same,Antibody ELISA A490*,SF/GF peptide; [6],"8,443"
same,Antibody ELISA A490*,SF/GF peptide; [7],"19,970"
same,IFN-γ serum,IFN-γ; dose 5 μg,"10,000 pg/mL"
same,IFN-γ serum,IFN-γ; dose 25 μg,"12,500 pg/mL"
